Assay results: patent US20260207563A1, “UREA COMPOUNDS AS ACTIVATORS OF POTASSIUM CHANNELS KV7.2/7.3 USEFUL IN THE TREATMENT OF CNS AND PNS DISORDERS” (ANGELINI PHARMA S.P.A., priority 2022, published 2026)
pEC50: −log10 of the molar value.

How the values were obtained:
Assay type in all cases: cell-based
[1] = molecular target: T1, heteromeric KV7.2/KV7.3 channels (KCNQ2, KCNQ3) (Homo sapiens, UniProt O43525+O43526); experiment: Automated patch-clamp (Sophion Qube 384) potency assay against KV7.2/KV7.3 channels; settings: CHO-K1/Kv7.2/Kv7.3 cells; for pEC50: EC50 from concentration-response of shift in Vhalf, 10 concentrations up to 30 μM, read-out: Kv7.2/7.3 EC50; for Kv7.2/7.3 ΔV1/2: maximal shift in the Vhalf from the top of the curve
T1 construct: expressed in transfected cells; host or cells: CHO-K1
In short: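 Whole-cell automated patch clamp on CHO-K1 cells stably expressing human KV7.2/KV7.3, held at −80 mV; I-V steps −100 to +20 mV (1 s) with 0 mV tail pulses, Boltzmann-fitted activation curves. Ten concentrations (1:3 from 30 μM, quadruplicate) versus 0.3% DMSO control; EC50 and maximal shift from 4-parameter fits of Vhalf shift.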

[2] = molecular target: T2, homomeric KV7.4 channel (KCNQ4) (Homo sapiens, UniProt P56696); experiment: Automated patch-clamp (Qube) counter-screening assay against KV7.4 channel; settings: CHO-K1 cells expressing KV7.4; class by maximal shift in the Vhalf at 30 μM
T2 construct: host or cells: CHO-K1
In short: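 CHO-K1 cells stably expressing homomeric human KV7.4 were recorded on the Qube automated patch clamp. Ten concentrations (1:3 dilutions from 30 μM) were tested in quadruplicate. The mean Vhalf shift was fitted with a 4-parameter logistic to give EC50 and maximal Vhalf shift, and selectivity was based on the shift at 30 μM.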

[3] = molecular target: T3, heteromeric KV7.3/KV7.5 channel (KCNQ3, KCNQ5) (Homo sapiens, UniProt O43525+Q9NR82); experiment: Automated patch-clamp counter-screening against KV7.3/KV7.5 channel; settings: HEK293 cells expressing Kv7.3/KV7.5; class by maximal shift in the Vhalf at 30 μM
T3 construct: host or cells: HEK293
In short: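 HEK293 cells with constitutive Kv7.3 and tetracycline-inducible Kv7.5 were recorded by automated patch clamp. Ten concentrations (1:3 series from 30 μM, quadruplicate) were tested; Vhalf shifts were fitted with a 4-parameter logistic to give EC50 and maximal Vhalf shift, with selectivity based on the shift at 30 μM.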

Compound | pEC50 [1] | Kv7.2/7.3 ΔV1/2 [1] [mV] | Kv7.4 selectivity criteria [2] | Kv7.3/7.5 selectivity criteria [3]
COc1ccc2c(c1)CCC2NC(=O)NCc1ccnc(OCC(F)(F)F)c1 (stereo not shown) [Compound 122] | 5.57 | 26.22 | A (Selective compounds showed Kv7.4 and/or Kv7.3/7.5 ΔV1/2 equal to or lower than 15 mV (letter A in table 3)) | A (Selective compounds showed Kv7.4 and/or Kv7.3/7.5 ΔV1/2 equal to or lower than 15 mV (letter A in table 3))
O=C(NCc1ccnc(OCC(F)(F)F)c1)N[C@H]1c2ccccc2C[C@@H]1O [Compound 123] | 5.18 | 25.23 | A (Selective compounds showed Kv7.4 and/or Kv7.3/7.5 ΔV1/2 equal to or lower than 15 mV (letter A in table 3)) | A (Selective compounds showed Kv7.4 and/or Kv7.3/7.5 ΔV1/2 equal to or lower than 15 mV (letter A in table 3))
CC(F)(F)c1cc(CNC(=O)N[C@@H]2CCc3ccc(F)cc32)ccn1 [Compound 124] | 4.93 | 18.78 | A (Selective compounds showed Kv7.4 and/or Kv7.3/7.5 ΔV1/2 equal to or lower than 15 mV (letter A in table 3)) | A (Selective compounds showed Kv7.4 and/or Kv7.3/7.5 ΔV1/2 equal to or lower than 15 mV (letter A in table 3))
COc1cc2c(cc1F)CCC2NC(=O)NCc1ccnc(OCC(F)(F)F)c1 (stereo not shown) [Compound 125] | 6.17 | 18.25 | A (Selective compounds showed Kv7.4 and/or Kv7.3/7.5 ΔV1/2 equal to or lower than 15 mV (letter A in table 3)) | A (Selective compounds showed Kv7.4 and/or Kv7.3/7.5 ΔV1/2 equal to or lower than 15 mV (letter A in table 3))
Cc1ccc2c(c1)[C@H](NC(=O)NCc1ccnc(OCC(F)(F)F)c1)CC2 [Compound 126] | 5.51 | 42.02 | B (Non-selective compounds showed Kv7.4 and/or Kv7.3/7.5 ΔV1/2 higher than 15 mV (letter B in table 3)) | B (Non-selective compounds showed Kv7.4 and/or Kv7.3/7.5 ΔV1/2 higher than 15 mV (letter B in table 3))
O=C(NCc1ccnc(OCC(F)(F)F)c1)N[C@@H]1CCc2cc(Cl)ccc21 [Compound 127] | 5.80 | 30.45 | B (Non-selective compounds showed Kv7.4 and/or Kv7.3/7.5 ΔV1/2 higher than 15 mV (letter B in table 3)) | B (Non-selective compounds showed Kv7.4 and/or Kv7.3/7.5 ΔV1/2 higher than 15 mV (letter B in table 3))
COc1ccc2c(c1)[C@@H](NC(=O)NCc1ccnc(OCC(F)(F)F)c1)CC2 [Compound 128] | 6.40 | 15.68 | A (Selective compounds showed Kv7.4 and/or Kv7.3/7.5 ΔV1/2 equal to or lower than 15 mV (letter A in table 3)) | A (Selective compounds showed Kv7.4 and/or Kv7.3/7.5 ΔV1/2 equal to or lower than 15 mV (letter A in table 3))
Cc1ccc2c(c1)CCC2NC(=O)NCc1ccnc(OCC(F)(F)F)c1 (stereo not shown) [Compound 129] | 6.03 | 14.07 | A (Selective compounds showed Kv7.4 and/or Kv7.3/7.5 ΔV1/2 equal to or lower than 15 mV (letter A in table 3)) | A (Selective compounds showed Kv7.4 and/or Kv7.3/7.5 ΔV1/2 equal to or lower than 15 mV (letter A in table 3))
O=C(NCc1ccnc(OCC(F)(F)F)c1)N[C@@H]1CCOc2ccccc21 [Compound 130] | 5.79 | 40.52 | B (Non-selective compounds showed Kv7.4 and/or Kv7.3/7.5 ΔV1/2 higher than 15 mV (letter B in table 3)) | B (Non-selective compounds showed Kv7.4 and/or Kv7.3/7.5 ΔV1/2 higher than 15 mV (letter B in table 3))
O=C(NCc1ccnc(OCC(F)(F)F)c1)Nc1cccc2c1OCC2 [Compound 131] | 6.12 | 22.47 | B (Non-selective compounds showed Kv7.4 and/or Kv7.3/7.5 ΔV1/2 higher than 15 mV (letter B in table 3)) | A (Selective compounds showed Kv7.4 and/or Kv7.3/7.5 ΔV1/2 equal to or lower than 15 mV (letter A in table 3))
O=C(NCc1ccnc(OCC(F)(F)F)c1)N[C@H]1CCOc2ccccc21 [Compound 132] | 5.49 | 19.47 | A (Selective compounds showed Kv7.4 and/or Kv7.3/7.5 ΔV1/2 equal to or lower than 15 mV (letter A in table 3)) | A (Selective compounds showed Kv7.4 and/or Kv7.3/7.5 ΔV1/2 equal to or lower than 15 mV (letter A in table 3))
O=C(NCc1ccnc(OCC(F)(F)F)c1)N[C@@H]1COc2ccccc21 [Compound 133] | 5.55 | 34.47 | A (Selective compounds showed Kv7.4 and/or Kv7.3/7.5 ΔV1/2 equal to or lower than 15 mV (letter A in table 3)) | B (Non-selective compounds showed Kv7.4 and/or Kv7.3/7.5 ΔV1/2 higher than 15 mV (letter B in table 3))
COc1ccc2c(c1)[C@H](NC(=O)NCc1ccnc(OCC(F)(F)F)c1)CC2 [Compound 134] | 5.51 | 43.25 | A (Selective compounds showed Kv7.4 and/or Kv7.3/7.5 ΔV1/2 equal to or lower than 15 mV (letter A in table 3)) | B (Non-selective compounds showed Kv7.4 and/or Kv7.3/7.5 ΔV1/2 higher than 15 mV (letter B in table 3))
O=C(NCc1ccnc(OCC(F)(F)F)c1)NC1CCc2c(F)cc(F)cc21 (stereo not shown) [Compound 135] | 6.45 | 22.58 | A (Selective compounds showed Kv7.4 and/or Kv7.3/7.5 ΔV1/2 equal to or lower than 15 mV (letter A in table 3)) | A (Selective compounds showed Kv7.4 and/or Kv7.3/7.5 ΔV1/2 equal to or lower than 15 mV (letter A in table 3))
CC1Cc2cccc(NC(=O)NCc3ccnc(OCC(F)(F)F)c3)c2O1 (stereo not shown) [Compound 136] | 6.25 | 16.11 | A (Selective compounds showed Kv7.4 and/or Kv7.3/7.5 ΔV1/2 equal to or lower than 15 mV (letter A in table 3)) | A (Selective compounds showed Kv7.4 and/or Kv7.3/7.5 ΔV1/2 equal to or lower than 15 mV (letter A in table 3))
O=C(NCc1ccnc(OCC(F)(F)F)c1)NC1CCc2ccccc21 (stereo not shown) [Compound 137] | 6.07 | 22.07 | B (Non-selective compounds showed Kv7.4 and/or Kv7.3/7.5 ΔV1/2 higher than 15 mV (letter B in table 3)) | B (Non-selective compounds showed Kv7.4 and/or Kv7.3/7.5 ΔV1/2 higher than 15 mV (letter B in table 3))
O=C(NCc1ccnc(OCC(F)(F)F)c1)N[C@H]1CCCc2ccccc21 [Compound 138] | 6.71 | 17.98 | A (Selective compounds showed Kv7.4 and/or Kv7.3/7.5 ΔV1/2 equal to or lower than 15 mV (letter A in table 3)) | A (Selective compounds showed Kv7.4 and/or Kv7.3/7.5 ΔV1/2 equal to or lower than 15 mV (letter A in table 3))
CC1CC(NC(=O)NCc2ccnc(OCC(F)(F)F)c2)c2ccccc21 (stereo not shown) [Compound 139] | 5.65 | 34.89 | A (Selective compounds showed Kv7.4 and/or Kv7.3/7.5 ΔV1/2 equal to or lower than 15 mV (letter A in table 3)) | A (Selective compounds showed Kv7.4 and/or Kv7.3/7.5 ΔV1/2 equal to or lower than 15 mV (letter A in table 3))
O=C(NCc1ccnc(OCC(F)(F)F)c1)Nc1cccc2c1OCCC2 [Compound 140] | 5.51 | 25.85 | A (Selective compounds showed Kv7.4 and/or Kv7.3/7.5 ΔV1/2 equal to or lower than 15 mV (letter A in table 3)) | A (Selective compounds showed Kv7.4 and/or Kv7.3/7.5 ΔV1/2 equal to or lower than 15 mV (letter A in table 3))
